For 25 compounds, IC50 results are on record in patent US9499551B2, “Substituted pyrrolo[2,3-b]pyridines for treating cancer or inflammatory diseases” (Confluence Life Sciences, Inc., priority 2014, dated 2016).

A value given as a limit tells only on which side of the number the result lay.

The target in experiment [1] is T1, TAK1-TAB1 (Homo sapiens, UniProt O43318).
T1 sequence (O43318 with tags, fused parts or gaps limits assumed): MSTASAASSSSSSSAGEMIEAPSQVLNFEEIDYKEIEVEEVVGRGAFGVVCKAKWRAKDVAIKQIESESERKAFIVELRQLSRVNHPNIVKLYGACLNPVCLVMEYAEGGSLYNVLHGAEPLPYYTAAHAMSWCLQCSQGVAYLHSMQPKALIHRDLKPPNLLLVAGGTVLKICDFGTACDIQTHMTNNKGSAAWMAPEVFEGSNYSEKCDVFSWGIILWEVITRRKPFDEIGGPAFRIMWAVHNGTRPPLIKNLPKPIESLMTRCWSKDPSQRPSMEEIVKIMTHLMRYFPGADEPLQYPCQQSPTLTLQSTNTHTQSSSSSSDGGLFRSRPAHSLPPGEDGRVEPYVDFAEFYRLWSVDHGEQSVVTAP
The experiment in a line: TAK1-TAB1 binding inhibitory potency (LanthaScreen competitive binding assay, kinase tracer-236). Particulars: 10 nM TAK1-TAB1, 100 nM kinase tracer-236; read-out: TAK1-Tab Inhibition IC50. The method in brief: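 Compounds were tested for TAK1-TAB1 binding in a 384-well LanthaScreen competitive FRET assay. TAK1-TAB1 (10 nM) and Eu-anti-his antibody (2 nM) were preincubated with compound for two hours before adding 100 nM Alexa Fluor 647 kinase tracer-236. The buffer was 20 mM HEPES pH 7.5, 10 mM MgCl2, 0.01% BSA, 0.0005% Tween-20 and 2% DMSO. IC50 came from 4-parameter logistic fits of emission ratio over an 11-point series from 20 μM to 0.34 nM.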

The subject of experiment [2] is IL-6 Production in Human Peripheral Blood Mononuclear Cells (PBMC). The experiment in a line: LPS stimulated IL-6 production in PBMC cells. The format is cell-based. The following applies: read-out: IL-6 Production Inhibition IC50. The protocol: LPS Stimulated IL-6 Production in PBMC Cells:
Lipopolysaccharide (LPS) stimulated IL-6 Production in Human Peripheral Blood Mononuclear Cells (PBMC): The cellular efficacy of compound candidates is determined using peripheral blood mononuclear cells purified from human whole blood, based upon the methods of Burnette et al. (2009) Pharmacology, 84:42-60. PBMC produce a number of cytokines (IL6, IL8, IL1β and TNFα) in response to stimulation with LPS. To induce the production of inflammatory mediators, PBMC are plated at a final concentration of 2×10^5 cells/well in a 96 well flat bottom plate in DMEM medium supplemented with 10% fetal bovine serum, 100 units/ml penicillin and 100 μg/ml streptomycin (Gibco BRL Life Technologies). Cells are treated with or without inhibitors for 1-3 hrs then stimulated with 100 ng/ml LPS (serotype 011:B4, Sigma) for an additional 3 hrs at 37° C. with 5% CO2. The supernatants are removed and stored at −20° C. until they are to be assayed. The levels of inflammatory mediators are determined using commercial MSD cytokine kits (Meso Scale Discovery) as per the manufacturer's instructions. Standard curves are based on 7 steps of 4× serial dilutions, with a wide dynamic range of 10000 pg/ml to 2.4 pg/ml, and a blank. Lower limit of detection (LLOD) is calculated at the commonly used 3× the standard deviation of the blank.

In general, IC50 refers to the concentration that inhibits the measured activity by half.

As to `NC(=O)/C=C\C(=O)Nc1c[nH]c2ncc(-c3ccccc3)cc12` [Example 234, N^1--(5-phenyl-1H-pyrrolo[2,3-b]pyridin-3-yl)maleamide], the values for the IC50 in experiment [1] and in experiment [2] were greater than 1000 nM and no more than 1000 nM, respectively.
Take `CC(=O)/C=C/C(=O)Nc1c[nH]c2ncc(-c3ccccc3)cc12` [Example 240, (E)-4-oxo-N-(5-phenyl-1H-pyrrolo[2,3-b]pyridin-3-yl)pent-2-enamide]: the IC50 in experiment [1] and in experiment [2] was no more than 1000 nM in each case.
As to `CC(=O)c1cccc(-c2cnc3[nH]cc(/C=C/C(N)=O)c3c2)c1` [Example 244, (E)-3-(5-(3-acetylphenyl)-1H-pyrrolo[2,3-b]pyridin-3-yl)acrylamide], the half-inhibitory concentration (IC50) in experiment [1] and in experiment [2] was no more than 1000 nM in each case.
Turning to `CC(=O)c1ccc(-c2cnc3[nH]cc(/C=C/C(N)=O)c3c2)cc1` [Example 245, (E)-3-(5-(4-acetylphenyl)-1H-pyrrolo[2,3-b]pyridin-3-yl)acrylamide], the IC50 in experiment [1] and in experiment [2] was no more than 1000 nM in each case.
For the compound `CC(C)(O)c1cccc(-c2cnc3[nH]cc(/C=C/C(N)=O)c3c2)c1` [Example 246, (E)-3-(5-(3-(2-hydroxypropan-2-yl)phenyl)-1H-pyrrolo[2,3-b]pyridin-3-yl)acrylamide], the IC50 in experiment [1] and in experiment [2] was no more than 1000 nM each time.
As to `CC(C)(O)c1ccc(-c2cnc3[nH]cc(/C=C/C(N)=O)c3c2)cc1` [Example 247, (E)-3-(5-(4-(2-hydroxypropan-2-yl)phenyl)-1H-pyrrolo[2,3-b]pyridin-3-yl)acrylamide], the IC50 in experiment [1] and in experiment [2] was no more than 1000 nM in each case.
Consider `NC(=O)/C=C/c1c[nH]c2ncc(-c3ccc(F)cc3F)nc12` [Example 248, (E)-3-(2-(2,4-difluorophenyl)-5H-pyrrolo[2,3-b]pyrazin-7-yl)acrylamide], for which the IC50 in experiment [1] and in experiment [2] was no more than 1000 nM throughout.
Consider `N#Cc1ccc(-c2cnc3[nH]cc(/C=C/C(N)=O)c3n2)cc1` [Example 249, (E)-3-(2-(4-cyanophenyl)-5H-pyrrolo[2,3-b]pyrazin-7-yl)acrylamide], for which the IC50 in experiment [1] and in experiment [2] was no more than 1000 nM throughout.
Take `NC(=O)/C=C/c1c[nH]c2ncc(-c3ccc(N4CCCC4)nc3)cc12` [Example 250, (E)-3-(5-(6-(pyrrolidin-1-yl)pyridin-3-yl)-1H-pyrrolo[2,3-b]pyridin-3-yl)acrylamide]: the IC50 in experiment [1] and in experiment [2] was no more than 1000 nM in each case.
For `CC(=O)/C=C/c1c[nH]c2ncc(-c3cccnc3)cc12` [Example 251, (E)-4-(5-(pyridin-3-yl)-1H-pyrrolo[2,3-b]pyridin-3-yl)but-3-en-2-one], the IC50 in experiment [1] is no more than 1000 nM; in experiment [2], greater than 1000 nM.
Taken in the same sequence, the figures for `NC(=O)/C=C/c1c[nH]c2ncc(-c3ccc(C(F)(F)F)cc3)cc12` [Example 252, (E)-3-(5-(4-(trifluoromethyl)phenyl)-1H-pyrrolo[2,3-b]pyridin-3-yl)acrylamide] were no more than 1000 nM and no more than 1000 nM.
Consider `NC(=O)/C=C/c1c[nH]c2ncc(-c3cc(C(F)(F)F)cc(C(F)(F)F)c3)cc12` [Example 253, (E)-3-(5-(3,5-bis(trifluoromethyl)phenyl)-1H pyrrolo[2,3-b]pyridin-3-yl)acrylamide], for which the half-inhibitory concentration (IC50) in experiment [1] and in experiment [2] was no more than 1000 nM throughout.
As to `Cc1cc(-c2cnc3[nH]cc(/C=C/C(N)=O)c3c2)cc(C(C)(C)C)c1` [Example 256, (E)-3-(5-(3-(tert-butyl)-5-methylphenyl)-1H-pyrrolo[2,3-b]pyridin-3-yl)acrylamide], the IC50 in experiment [1] and in experiment [2] was no more than 1000 nM in each case.
As for `COc1cc(OC2CCCC2)cc(-c2cnc3[nH]cc(/C=C/C(N)=O)c3c2)c1` [Example 257, (E)-3-(5-(3-(cyclopentyloxy)-5-methoxyphenyl)-1H-pyrrolo[2,3-b]pyridin-3-yl)acrylamide], the IC50 in experiment [1] and in experiment [2] was no more than 1000 nM throughout.
With `CC(C)(C)c1cc(-c2cnc3[nH]cc(/C=C/C(N)=O)c3c2)cc(C(C)(C)C)c1` [Example 258, (E)-3-(5-(3,5-di-tert-butylphenyl)-1H-pyrrolo[2,3-b]pyridin-3-yl)acrylamide], the IC50 in experiment [1] and in experiment [2] was no more than 1000 nM throughout.
On to `NC(=O)/C=C/c1c[nH]c2ncc(-c3ccncc3)cc12` [Example 259, (E)-3-(5-(pyridin-4-yl)-1H-pyrrolo[2,3-b]pyridin-3-yl)acrylamide], for which the IC50 in experiment [1] and in experiment [2] was no more than 1000 nM each time.
On to `CC(C)Oc1ccc(-c2cnc3[nH]cc(/C=C/C(N)=O)c3c2)cn1` [Example 260, (E)-3-(5-(6-isopropoxypyridin-3-yl)-1H-pyrrolo[2,3-b]pyridin-3-yl)acrylamide], for which the IC50 in experiment [1] and in experiment [2] was no more than 1000 nM throughout.
With `N#Cc1ccc(-c2cnc3[nH]cc(/C=C/C(N)=O)c3c2)cn1` [Example 261, (E)-3-(5-(6-cyanopyridin-3-yl)-1H-pyrrolo[2,3-b]pyridin-3-yl)acrylamide], the IC50 in experiment [1] and in experiment [2] was no more than 1000 nM each time.
`NC(=O)/C=C/c1c[nH]c2ncc(-c3ccc(C(=O)N4CCCCC4)cc3)cc12` [Example 262, (E)-3-(5-(4-(piperidine-1-carbonyl)phenyl)-1H-pyrrolo[2,3-b]pyridin-3-yl)acrylamide]: the IC50 in experiment [1] and in experiment [2] was no more than 1000 nM in each case.
In the case of `NC(=O)/C=C/c1c[nH]c2ncc(-c3cnc4ccccc4c3)nc12` [Example 263, (E)-3-(2-(quinolin-3-yl)-5H-pyrrolo[2,3-b]pyrazin-7-yl)acrylamide], the IC50 in experiment [1] and in experiment [2] was no more than 1000 nM each time.
As to `CC(C)(C)C(=O)N1CCN(c2cnc3[nH]cc(/C=C/C(N)=O)c3c2)CC1` [Example 264, (E)-3-(5-(4-pivaloylpiperazin-1-yl)-1H-pyrrolo[2,3-b]pyridin-3-yl)acrylamide], the IC50 in experiment [1] and in experiment [2] was no more than 1000 nM in each case.
For `CC1CCN(C(=O)c2ccc(-c3cnc4[nH]cc(/C=C/C(N)=O)c4c3)cn2)CC1` [Example 265, (E)-3-(5-(6-(4-methylpiperidine-1-carbonyl)pyridin-3-yl)-1H-pyrrolo[2,3-b]pyridin-3-yl)acrylamide], the IC50 in experiment [1] was no more than 1000 nM; in experiment [2] it was greater than 1000 nM.
Taken in the same sequence, the figures for `CC(C)(C)OC(=O)N1CCN(c2cnc3[nH]cc(/C=C/C(N)=O)c3c2)CC1` [Example 266, (E)-tert-butyl 4-(3-(3-amino-3-oxoprop-1-en-1-yl)-1H-pyrrolo[2,3-b]pyridin-5-yl)piperazine-1-carboxylate] were no more than 1000 nM and no more than 1000 nM.
Taken in the same sequence, the figures for `NC(=O)/C=C/c1c[nH]c2ncc(N3CCN(C(=O)c4ccccc4)CC3)cc12` [Example 267, (E)-3-(5-(4-benzoylpiperazin-1-yl)-1H-pyrrolo[2,3-b]pyridin-3-yl)acrylamide] were no more than 1000 nM and greater than 1000 nM.
Taken in the same sequence, the figures for `CC(C)N1CCN(C(=O)c2ccc(-c3cnc4[nH]cc(/C=C/C(N)=O)c4c3)cc2)CC1` [Example 268, (E)-3-(5-(4-(4-isopropyl-piperazine-1-carbonyl)phenyl)-1H-pyrrolo[2,3-b]pyridin-3-yl)acrylamide] were no more than 1000 nM and no more than 1000 nM.
